# Data taken from ChEMBL document CHEMBL4130373, “Design, synthesis and biological evaluation of 4-anilinoquinoline derivatives as novel potent tubulin depolymerization agents” (Eur J Med Chem, 2017).
# Counter-ions that a name gives are not always drawn. Activity calls are given as the source filed them. No cut-off for these calls is given here.
# Assays:
# MDA-MB-231 = experiment: Antiproliferative activity against human MDA-MB-231 cells after 48 hrs by MTT assay; type: functional, cell-based; details: MDA-MB-231, 48 h
# [1] = Solubility of the compound in physiological saline at 1 mg; type: physicochemical; details: buffer
# HCT-116 [2] = experiment: Antitumor activity against human HCT116 cells xenografted in Balb/c athymic nude mouse assessed as tumor growth inhibition at 100 mg/kg, iv administered once in every 7 days measured on day 18 post treatment relative to control; type: functional; details: HCT-116, iv, read-out: TGI
# Mus musculus [3] = experiment: Toxicity in Balb/c athymic nude mouse xenografted with human HCT116 cells assessed as body weight loss at 100 mg/kg, iv administered once in every 7 days relative to control; type: organism-based; details: in vivo, 168 h
# HCT-8 = experiment: Antiproliferative activity against human HCT8 cells after 48 hrs by MTT assay; type: functional, cell-based; details: HCT-8, 48 h
# [4] = Resistance index, ratio of IC50 for human HCT8/V cells to IC50 for human HCT8 cells; type: functional
# [5] = Antiproliferative activity against human HCT8/V cells after 48 hrs by MTT assay; type: functional, cell-based; details: HCT-8, 48 h
# L02 = experiment: Antiproliferative activity against human LO2 cells after 48 hrs by MTT assay; type: cell-based; details: L02, 48 h
# A2780S [6] = experiment: Induction of alpha-tubulin depolymerization in human A2780S cells at 100 nM after 24 hrs by DAPI staining based immunofluorescence microscopic method; type: cell-based
# HEK293 = experiment: Antiproliferative activity against HEK293 cells after 48 hrs by MTT assay; type: cell-based; details: Homo sapiens, HEK293, 48 h
# HepG2 [7] = experiment: Binding affinity to beta-tubulin colchicine binding site in human HepG2 cells assessed as reduction in EBI-beta-tubulin adduct formation at 5 uM preincubated for 2 hrs followed by EBI addition measured after 1.5 hrs by Western blot analysis; type: cell-based
# MCF7 = experiment: Antiproliferative activity against human MCF7 cells after 48 hrs by MTT assay; type: functional, cell-based; details: MCF7, 48 h
# A2780S [8] = experiment: Antiproliferative activity against human A2780S cells after 48 hrs by MTT assay; type: functional, cell-based
# A549 = experiment: Antiproliferative activity against human A549 cells after 48 hrs by MTT assay; type: functional, cell-based; details: A549, 48 h
# A2780S [9] = experiment: Cell cycle arrest in human A2780S cells assessed as accumulation at S phase at 30 nM after 24 hrs by propidium iodide staining based flow cytometry (reference value: 40.36%); type: functional
# [10] = Resistance index, ratio of IC50 for human MCF7/ADR cells to IC50 for human MCF7 cells; type: functional
# A2780S [11] = experiment: Induction of alpha-tubulin depolymerization in human A2780S cells at 5 to 50 nM after 24 hrs by DAPI staining based immunofluorescence microscopic method; type: cell-based
# HCT-116 [12] = experiment: Antitumor activity against human HCT116 cells xenografted in Balb/c athymic nude mouse assessed as tumor growth inhibition at 2.5 mg/kg administered once in every 2 days measured on day 18 post treatment relative to control; type: functional; details: read-out: TGI
# Mus musculus [13] = experiment: Toxicity in Balb/c athymic nude mouse xenografted with human HCT116 cells assessed as effect on feeding behaviour at 2.5 mg/kg administered once in every 2 days; type: organism-based; details: in vivo, 48 h
# A2780S [14] = experiment: Cell cycle arrest in human A2780S cells assessed as accumulation at G2/M phase at 10 nM after 24 hrs by propidium iodide staining based flow cytometry (reference value: 15.34%); type: functional
# [15] = Antiproliferative activity against human HCT8/T cells after 48 hrs by MTT assay; type: functional, cell-based; details: HCT-8, 48 h
# A2780S [16] = experiment: Cell cycle arrest in human A2780S cells assessed as accumulation at S phase at 10 nM after 24 hrs by propidium iodide staining based flow cytometry (reference value: 40.36%); type: functional
# HCT-116 [17] = experiment: Antiproliferative activity against human HCT116 cells after 48 hrs by MTT assay; type: functional, cell-based; details: HCT-116, 48 h
# A2780S [18] = experiment: Cell cycle arrest in human A2780S cells assessed as accumulation at G2/M phase at 3 nM after 24 hrs by propidium iodide staining based flow cytometry (reference value: 15.34%); type: functional
# A2780S [19] = experiment: Cell cycle arrest in human A2780S cells assessed as accumulation at S phase at 3 nM after 24 hrs by propidium iodide staining based flow cytometry (reference value: 40.36%); type: functional
# A2780S [20] = experiment: Cell cycle arrest in human A2780S cells assessed as accumulation at G0/G1 phase at 30 nM after 24 hrs by propidium iodide staining based flow cytometry (reference value: 44.3%); type: functional
# A2780S [21] = experiment: Cell cycle arrest in human A2780S cells assessed as accumulation at G0/G1 phase at 10 nM after 24 hrs by propidium iodide staining based flow cytometry (reference value: 44.3%); type: functional
# HepG2 [22] = experiment: Binding affinity to beta-tubulin colchicine binding site in human HepG2 cells assessed as reduction in EBI-beta-tubulin adduct formation preincubated for 2 hrs followed by EBI addition measured after 1.5 hrs by Western blot analysis; type: cell-based
# A2780/Taxol = experiment: Antiproliferative activity against human A2780T cells after 48 hrs by MTT assay; type: functional, cell-based
# Sus scrofa = organism: Sus scrofa; experiment: Inhibition of porcine brain tubulin polymerization preincubated for 5 mins followed by GTP addition measured every 2 mins by spectrophotometric method
# A2780S [23] = experiment: Cell cycle arrest in human A2780S cells assessed as accumulation at G2/M phase at 30 nM after 24 hrs by propidium iodide staining based flow cytometry (reference value: 15.34%); type: functional
# A2780S [24] = experiment: Cell cycle arrest in human A2780S cells assessed as accumulation at G0/G1 phase at 3 nM after 24 hrs by propidium iodide staining based flow cytometry (reference value: 44.3%); type: functional
# NCI/ADR-RES = experiment: Antiproliferative activity against human MCF7/ADR cells after 48 hrs by MTT assay; type: functional, cell-based
# Mus musculus [25] = experiment: Toxicity in Balb/c athymic nude mouse xenografted with human HCT116 cells assessed as body weight loss at 2.5 mg/kg administered once in every 2 days relative to control; type: organism-based; details: in vivo, 48 h
# [26] = Resistance index, ratio of IC50 for human A2780T cells to IC50 for human A2780S cells; type: functional
# A2780S [27] = experiment: Cell cycle arrest in human A2780S cells assessed as accumulation at G2/M phase after 24 hrs by propidium iodide staining based flow cytometry; type: functional
# [28] = Resistance index, ratio of IC50 for human HCT8/T cells to IC50 for human HCT8 cells; type: functional
# Mus musculus [29] = experiment: Toxicity in Balb/c athymic nude mouse xenografted with human HCT116 cells assessed as abnormal behaviour at 2.5 mg/kg administered once in every 2 days; type: organism-based; details: in vivo, 48 h
structure (smiles),measurement,setting,value
COc1ccc(N(C)c2cc(C)nc3ccccc23)cc1NC(=O)CCl,IC50,MDA-MB-231,6.6 nM
same,solubility,[1],Soluble
COc1ccc(N(C)c2ccnc3ccccc23)cc1N,IC50,MDA-MB-231,> 500 nM
same,solubility,[1],Soluble
CCOC(=O)C(=O)Nc1cc(N(C)c2cc(C)nc3ccccc23)ccc1OC,IC50,MDA-MB-231,443 nM
same,solubility,[1],Soluble
COc1ccc(N(C)c2ccnc3ccccc23)cc1,IC50,MDA-MB-231,> 500 nM
same,solubility,[1],Insoluble
COc1ccc(N(C)c2cc(C)nc3ccccc23)cc1NC(=O)CN1CCCC(C)C1 (stereo unspecified),IC50,MDA-MB-231,394 nM
same,solubility,[1],Insoluble
O=c1[nH]cc(F)c(=O)[nH]1 [FLUOROURACIL],inhibition in vivo at 100 mg/kg,HCT-116 [2],60.8%
same,Activity,Mus musculus [3],< 10%
CCCCC(=O)Nc1cc(N(C)c2cc(C)nc3ccccc23)ccc1OC,IC50,MDA-MB-231,82.4 nM
same,solubility,[1],Insoluble
CC[C@]1(O)C[C@@H]2CN(CCc3c([nH]c4ccccc34)[C@@](C(=O)OC)(c3cc4c(cc3OC)N(C)[C@H]3[C@@](O)(C(=O)OC)[C@H](OC(C)=O)[C@]5(CC)C=CCN6CC[C@]43[C@@H]65)C2)C1 [VINBLASTINE],IC50,HCT-8,20.2 nM
same,Ratio IC50,[4],101.8
same,IC50,[5],2060 nM
COc1ccc(N(C)c2cc(C)nc3ccccc23)cc1NC(=O)CN(C)CCC#N,IC50,MDA-MB-231,> 500 nM
same,solubility,[1],Insoluble
C=CC(=O)Nc1cc(N(C)c2cc(C)nc3ccccc23)ccc1OC,IC50,MDA-MB-231,43.4 nM
same,solubility,[1],Soluble
CSc1ccc(N(C)c2cc(C)nc3ccccc23)cc1N,IC50,MDA-MB-231,9.5 nM
same,solubility,[1],Soluble
COc1cc2c(c(OC)c1OC)-c1ccc(OC)c(=O)cc1[C@@H](NC(C)=O)CC2 [COLCHICINE],IC50,L02,26.5 nM
same,Activity,A2780S [6],Active
same,IC50,HCT-8,13.4 nM
same,IC50,HEK293,10.2 nM
same,IC50,MDA-MB-231,38.2 nM
same,Activity,HepG2 [7],Active
same,IC50,MCF7,13.4 nM
same,IC50,A2780S [8],12.3 nM
same,IC50,A549,32.7 nM
CCCC(=O)Nc1cc(N(C)c2cc(C)nc3ccccc23)ccc1OC,IC50,MDA-MB-231,58.4 nM
same,solubility,[1],Insoluble
CSc1ccc(N(C)c2cc(C)nc3ccccc23)cc1,IC50,MDA-MB-231,15.5 nM
same,solubility,[1],Soluble
COc1ccc(N(C)c2cc(Cl)nc3ccccc23)cc1,IC50,MDA-MB-231,> 500 nM
same,solubility,[1],Insoluble
COc1ccc(N(C)c2cc(C)nc3ccccc23)cc1NC(=O)CNCCNc1ccccc1,IC50,MDA-MB-231,83.6 nM
same,solubility,[1],Insoluble
COc1ccc(N(C)c2cc(C)nc3ccccc23)cc1NC(=O)CCCCl,Activity,A2780S [9],17.03%
same,IC50,L02,75.6 nM
same,Ratio IC50,[10],2.3
same,Activity,A2780S [11],Active
same,inhibition in vivo at 2.5 mg/kg,HCT-116 [12],54.3%
same,Activity,Mus musculus [13],Non-Toxic
same,Activity,A2780S [14],74.62%
same,IC50,HCT-8,3.4 nM
same,IC50,[15],3.5 nM
same,Activity,A2780S [16],22.69%
same,IC50,HCT-116 [17],2.7 nM
same,Activity,A2780S [18],39.48%
same,IC50,HEK293; read-out: IC50,45.3 nM
same,IC50,MDA-MB-231,3.9 nM
same,Activity,A2780S [19],32.57%
same,Activity,A2780S [20],2.3%
same,Activity,A2780S [21],2.68%
same,Activity,HepG2 [22],Dose-dependent effect
same,IC50,A2780/Taxol,3.7 nM
same,inhibition,Sus scrofa,Dose-dependent effect
same,Activity,A2780S [23],80.67%
same,Activity,A2780S [24],27.95%
same,IC50,NCI/ADR-RES,3.3 nM
same,IC50,MCF7,1.5 nM
same,Ratio IC50,[4],1
same,IC50,[5],3.5 nM
same,Activity,Mus musculus [25],< 10%
same,Ratio IC50,[26],1.7
same,Activity,A2780S [27],Dose-dependent effect
same,Ratio IC50,[28],1
same,IC50,A2780S [8],2.2 nM
same,IC50,A549,3.2 nM
same,Activity,Mus musculus [29],Non-Toxic
same,solubility,[1],Soluble
COc1cccc2c1C(=O)c1c(O)c3c(c(O)c1C2=O)C[C@@](O)(C(=O)CO)C[C@@H]3O[C@H]1C[C@H](N)[C@H](O)[C@H](C)O1 [DOXORUBICIN HYDROCHLORIDE],IC50,NCI/ADR-RES,54800 nM
CC(=O)O[C@H]1C(=O)[C@@]2(C)[C@H]([C@H](OC(=O)c3ccccc3)[C@]3(O)C[C@H](OC(=O)[C@H](O)[C@@H](NC(=O)c4ccccc4)c4ccccc4)C(C)=C1C3(C)C)[C@]1(OC(C)=O)CO[C@@H]1C[C@@H]2O [PACLITAXEL],Activity,A2780S [6],inactive
same,IC50,HCT-8,17.4 nM
same,IC50,[15],9880 nM
same,IC50,A2780/Taxol,25100 nM
same,Ratio IC50,[26],2042.3
same,Ratio IC50,[28],567.4
same,IC50,A2780S [8],12.3 nM
COc1ccc(N(C)c2cc(C)nc3ccccc23)cc1NC(C)=O,IC50,MDA-MB-231,9.1 nM
same,solubility,[1],Soluble
COc1ccc(N(C)c2cc(C)nc3ccccc23)cc1,IC50,MDA-MB-231,6.6 nM
same,solubility,[1],Insoluble
CCC(=O)Nc1cc(N(C)c2cc(C)nc3ccccc23)ccc1OC,IC50,MDA-MB-231,18.5 nM
same,solubility,[1],Soluble
COc1ccc(N(C)c2cc(C)nc3ccccc23)cc1N,IC50,MDA-MB-231,3.2 nM
same,solubility,[1],Insoluble
COc1ccc(N(C)c2cc(C)nc3ccccc23)cc1NC(=O)CBr,IC50,MDA-MB-231,87.2 nM
same,solubility,[1],Soluble
COC(=O)CCCC(=O)Nc1cc(N(C)c2cc(C)nc3ccccc23)ccc1OC,IC50,MDA-MB-231,186 nM
same,solubility,[1],Insoluble
COC(=O)C(=O)Nc1cc(N(C)c2cc(C)nc3ccccc23)ccc1OC,IC50,MDA-MB-231,> 500 nM
same,solubility,[1],Insoluble
COc1ccc(N(C)c2cc(C)nc3ccccc23)cc1NC(=O)CCCl,IC50,MDA-MB-231,96.6 nM
same,solubility,[1],Soluble
COc1ccc(N(C)c2cc(C)nc3ccccc23)cc1NC(=O)CCCCCl,IC50,MDA-MB-231,363 nM
same,solubility,[1],Insoluble
COc1ccc(N(C)c2cc(C)nc3ccccc23)cc1NC(=O)CN1CCSCC1,IC50,MDA-MB-231,> 500 nM
same,solubility,[1],Soluble
COc1ccc(N(C)c2cc(Cl)nc3ccccc23)cc1N,IC50,MDA-MB-231,43.1 nM
same,solubility,[1],Insoluble
COc1ccc(N(C)c2cc(C)nc3ccccc23)cc1NC(=O)CN1CCOCC1,IC50,MDA-MB-231,256 nM
same,solubility,[1],Insoluble
